In one test the target is T1, GRK2 (Homo sapiens, UniProt P25098).
T1 construct: purchased Thermo Scientific
T1 sequence (P25098 1-689): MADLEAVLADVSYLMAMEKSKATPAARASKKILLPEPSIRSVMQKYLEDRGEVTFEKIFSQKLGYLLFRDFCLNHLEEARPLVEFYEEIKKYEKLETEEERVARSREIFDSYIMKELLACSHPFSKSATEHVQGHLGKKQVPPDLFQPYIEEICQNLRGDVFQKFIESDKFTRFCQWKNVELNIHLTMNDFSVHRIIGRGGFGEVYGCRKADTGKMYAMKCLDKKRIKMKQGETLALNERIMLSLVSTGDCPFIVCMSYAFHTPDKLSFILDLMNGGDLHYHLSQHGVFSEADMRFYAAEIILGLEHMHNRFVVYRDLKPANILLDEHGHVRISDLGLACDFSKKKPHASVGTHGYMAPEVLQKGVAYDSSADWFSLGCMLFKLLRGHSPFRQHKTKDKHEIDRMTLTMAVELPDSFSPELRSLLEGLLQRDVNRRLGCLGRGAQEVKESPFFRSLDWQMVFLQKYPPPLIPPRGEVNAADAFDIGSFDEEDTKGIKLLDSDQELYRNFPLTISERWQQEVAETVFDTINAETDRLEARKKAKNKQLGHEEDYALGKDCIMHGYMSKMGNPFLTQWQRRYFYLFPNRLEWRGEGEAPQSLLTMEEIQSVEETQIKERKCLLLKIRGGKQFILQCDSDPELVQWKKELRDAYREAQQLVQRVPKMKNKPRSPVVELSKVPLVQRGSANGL
Description: Lance Kinase Activity Assay, GRK2. As to conditions: biochemical Lance kinase activity assay; class symbols A-F; read-out: GRK2 LANCE Assay (IC-50). In a few lines: (§1)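 IC50s from sigmoidal dose-response over 0.0025-10 μM compound, with phosphorylated ULight substrate detected by Eu anti-phospho antibody FRET after EDTA quench.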
In general terms: TR-FRET usually uses a lanthanide donor and a delayed reading to cut background.

A further test concerns the target T2, GRK5 (Homo sapiens, UniProt P34947).
T2 construct: purchased Thermo Scientific
Description: Lance Kinase Activity Assay, GRK5. As to conditions: biochemical Lance kinase activity assay; class symbols A-F; read-out: GRK5 LANCE Assay (IC-50). An outline of the steps: as §1

pIC50: −log10 of the molar value.

T2 sequence (P34947 whole entry): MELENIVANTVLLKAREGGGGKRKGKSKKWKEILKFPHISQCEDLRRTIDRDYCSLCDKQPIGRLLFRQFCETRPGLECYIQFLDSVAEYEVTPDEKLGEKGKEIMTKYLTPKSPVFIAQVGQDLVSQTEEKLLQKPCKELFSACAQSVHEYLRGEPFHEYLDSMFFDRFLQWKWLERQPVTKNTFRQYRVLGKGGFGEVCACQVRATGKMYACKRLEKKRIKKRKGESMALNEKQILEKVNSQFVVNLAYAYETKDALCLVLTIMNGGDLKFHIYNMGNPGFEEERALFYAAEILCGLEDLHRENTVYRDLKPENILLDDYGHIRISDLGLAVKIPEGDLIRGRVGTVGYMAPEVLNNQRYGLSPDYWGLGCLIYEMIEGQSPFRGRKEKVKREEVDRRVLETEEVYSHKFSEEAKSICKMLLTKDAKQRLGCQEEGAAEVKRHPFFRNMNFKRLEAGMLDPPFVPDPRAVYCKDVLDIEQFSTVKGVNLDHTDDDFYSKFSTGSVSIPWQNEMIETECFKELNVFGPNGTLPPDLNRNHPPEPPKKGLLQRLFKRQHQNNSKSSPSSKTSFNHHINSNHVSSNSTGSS

For the compound `COc1ccc([C@@H](C)NC(=O)/C=C/c2c[nH]c3ncc(-c4cccc(CS(C)(=O)=O)c4)cc23)cc1OC` [Example 217, (R,E)-N-(1-(3,4-dimethoxyphenyl)ethyl)-3-(5-(3-((methylsulfonyl)methyl)phenyl)-1H-pyrrolo[2,3-b]pyridin-3-yl)acrylamide], the pIC50 at GRK2 is 5.00 to 6.00; at GRK5, ≥ 7.30.
Take `N#C/C(=C\c1c[nH]c2ncccc12)C(=O)NCc1ccc(C#N)cc1` [Example 26, (E)-2-cyano-N-(4-cyanobenzyl)-3-(1H-pyrrolo[2,3-b]pyridin-3-yl)acrylamide]: the pIC50 on GRK2 and on GRK5 was 5.00 to 6.00 throughout.
As to `COc1ccc([C@@H](C)NC(=O)/C=C/c2c[nH]c3ncc(-c4cncc(S(C)(=O)=O)c4)cc23)cc1OC` [Example 218, (R,E)-N-(1-(3,4-dimethoxyphenyl)ethyl)-3-(5-(5-(methylsulfonyl)pyridin-3-yl)-1H-pyrrolo[2,3-b]pyridin-3-yl)acrylamide], the figures for the pIC50 at GRK2 and at GRK5 were < 5.00 and ≥ 7.30, respectively.
For `CC[C@@H](NC(=O)/C(C#N)=C/c1c[nH]c2ncccc12)c1ccccc1` [Example 68, (R,E)-2-cyano-N-(1-phenylpropyl)-3-(1H-pyrrolo[2,3-b]pyridin-3-yl)acrylamide] the same measures were 6.30 to 7.00 and 6.30 to 7.00.
Turning to `COc1ccc([C@@H](C)NC(=O)/C=C/c2c[nH]c3nccc(-c4ccc(F)cc4OC)c23)cc1OC` [Example 229, (R,E)-N-(1-(3,4-dimethoxyphenyl)ethyl)-3-(4-(4-fluoro-2-methoxyphenyl)-1H-pyrrolo[2,3-b]pyridin-3-yl)acrylamide], the pIC50 at GRK2 was < 5.00; at GRK5, 5.00 to 6.00.
For `COc1ccc([C@@H](C)NC(=O)/C(C#N)=C/c2c[nH]c3ncc(-c4cccc(CN5CCN(C)CC5)c4)cc23)cc1OC` [Example 118, (R,E)-2-cyano-N-(1-(3,4-dimethoxyphenyl)ethyl)-3-(5-(3-((4-methylpiperazin-1-yl)methyl)phenyl)-1H-pyrrolo[2,3-b]pyridin-3-yl)acrylamide] the same measures were 5.00 to 6.00 and ≥ 7.30.
Take `COc1ccc([C@@H](C)NC(=O)/C=C/c2c[nH]c3ncc(-c4ccc(F)c(S(C)(=O)=O)c4)cc23)cc1OC` [Example 220, (R,E)-N-(1-(3,4-dimethoxyphenyl)ethyl)-3-(5-(4-fluoro-3-(methylsulfonyl)phenyl)-1H-pyrrolo[2,3-b]pyridin-3-yl)acrylamide]: the pIC50 is 5.00 to 6.00 on GRK2 and ≥ 7.30 at GRK5.
For `COc1ccc([C@@H](C)NC(=O)/C=C/c2c[nH]c3nccc(-c4cccc(CNC(C)=O)c4)c23)cc1OC` [Example 243, (R,E)-3-(4-(3-(acetamidomethyl)phenyl)-1H-pyrrolo[2,3-b]pyridin-3-yl)-N-(1-(3,4-dimethoxyphenyl)ethyl)acrylamide] the same measures were < 5.00 and 6.30 to 7.00.
Regarding `COc1ccc([C@@H](C)NC(=O)/C=C/c2c[nH]c3nccc(-c4cccc(S(=O)(=O)N(C)C)c4)c23)cc1OC` [Example 227, (R,E)-N-(1-(3,4-dimethoxyphenyl)ethyl)-3-(4-(3-(N,N-dimethylsulfamoyl)phenyl)-1H-pyrrolo[2,3-b]pyridin-3-yl)acrylamide], the figures for the pIC50 on GRK2 and at GRK5 were 5.00 to 6.00 and 6.30 to 7.00, respectively.
For `COc1ccc([C@@H](C)NC(=O)/C(C#N)=C/c2c[nH]c3ncc(-c4cc(F)cc(F)c4)cc23)cc1OC` [Example 131] the same measures were 5.00 to 6.00 and 7.00 to 7.30.
For `N#C/C(=C\c1c[nH]c2ncc(Cl)cc12)C(=O)NCc1ccccc1` [Example 73, (E)-N-benzyl-3-(5-chloro-1H-pyrrolo[2,3-b]pyridin-3-yl)-2-cyanoacrylamide] the same measures were 5.00 to 6.00 and 5.00 to 6.00.
For `C[C@@H](NC(=O)/C(C#N)=C/c1c[nH]c2ncccc12)c1ccc(F)cc1` [Example 69, (R,E)-2-cyano-N-(1-(4-fluorophenyl)ethyl)-3-(1H-pyrrolo[2,3-b]pyridin-3-yl)acrylamide] the same measures were 7.00 to 7.30 and ≥ 7.30.
`COc1ccc([C@@H](C)NC(=O)/C(C#N)=C/c2c[nH]c3ncccc23)cc1` [Example 19, (R,E)-2-cyano-N-(1-(4-methoxyphenyl)ethyl)-3-(1H-pyrrolo[2,3-b]pyridin-3-yl)acrylamide]: the pIC50 was 5.00 to 6.00 on GRK2 and 6.30 to 7.00 on GRK5.
With `COc1ccc([C@@H](C)NC(=O)/C=C/c2c[nH]c3ncc(-c4cccc(CNC(C)=O)c4)cc23)cc1OC` [Example 203, (R,E)-3-(5-(3-(acetamidomethyl)phenyl)-1H-pyrrolo[2,3-b]pyridin-3-yl)-N-(1-(3,4-dimethoxyphenyl)ethyl)acrylamide], the pIC50 at GRK2 was 5.00 to 6.00; at GRK5 it was ≥ 7.30.
As for `COc1ccc([C@@H](C)NC(=O)/C=C/c2c[nH]c3ncc(-c4cccc(CCN(C)C)c4)cc23)cc1OC` [Example 192], the pIC50 was 5.00 to 6.00 at GRK2 and ≥ 7.30 on GRK5.
Regarding `COc1ccc([C@@H](C)NC(=O)/C(C#N)=C/c2c[nH]c3ncc(C4=CCCCC4)cc23)cc1OC` [Example 156, (R,E)-2-cyano-3-(5-(cyclohex-1-en-1-yl)-1H-pyrrolo[2,3-b]pyridin-3-yl)-N-(1-(3,4-dimethoxyphenyl)ethyl)acrylamide], the pIC50 on GRK2 was < 5.00; on GRK5, 6.30 to 7.00.
For the compound `O=C(/C=C/c1c[nH]c2ncc(Cl)cc12)NCc1ccccc1` [Example 6, (E)-N-benzyl-3-(5-chloro-1H-pyrrolo[2,3-b]pyridin-3-yl)acrylamide], the pIC50 is 5.00 to 6.00 on GRK2 and 6.30 to 7.00 at GRK5.
For `N#C/C(=C\c1c[nH]c2ncccc12)C(=O)NCc1cccc(C(F)(F)F)c1` [Example 61, (E)-2-cyano-3-(1H-pyrrolo[2,3-b]pyridin-3-yl)-N-(3-(trifluoromethyl)benzyl)acrylamide] the same measures were 5.00 to 6.00 and 6.00 to 6.30.
With `COc1ccc([C@@H](C)NC(=O)/C=C/c2c[nH]c3ncc(-c4ccc(F)cc4OC)cc23)cc1OC` [Example 201, (R,E)-N-(1-(3,4-dimethoxyphenyl)ethyl)-3-(5-(4-fluoro-2-methoxyphenyl)-1H-pyrrolo[2,3-b]pyridin-3-yl)acrylamide], the results for the pIC50 at GRK2 and at GRK5 were < 5.00 and 6.30 to 7.00, respectively.
As for `COc1ccc([C@@H](C)NC(=O)/C(C#N)=C/c2c[nH]c3nccc(-c4ccccc4)c23)cc1OC` [Example 175], the pIC50 on GRK2 was 5.00 to 6.00; on GRK5 it was ≥ 7.30.
For the compound `COc1ccc([C@@H](C)NC(=O)/C=C/c2c[nH]c3nccc(-c4ccc(CN5CCN(C)CC5)cc4)c23)cc1OC` [Example 234, (R,E)-N-(1-(3,4-dimethoxyphenyl)ethyl)-3-(4-(4-((4-methylpiperazin-1-yl)methyl)phenyl)-1H-pyrrolo[2,3-b]pyridin-3-yl)acrylamide], the values for the pIC50 at GRK2 and on GRK5 were 5.00 to 6.00 and 6.30 to 7.00, respectively.
Regarding `COc1ccc([C@@H](C)NC(=O)/C=C/c2c[nH]c3nccc(-c4ccc(OCCN(C)C)cc4)c23)cc1OC` [Example 230, (R,E)-N-(1-(3,4-dimethoxyphenyl)ethyl)-3-(4-(4-(2-(dimethylamino)ethoxy)phenyl)-1H-pyrrolo[2,3-b]pyridin-3-yl)acrylamide], the pIC50 on GRK2 was 5.00 to 6.00; on GRK5, ≥ 7.30.
As for `COc1ccc([C@@H](C)NC(=O)/C=C/c2c[nH]c3ncc(-c4ccnc(S(C)(=O)=O)c4)cc23)cc1OC` [Example 250, (R,E)-N-(1-(3,4-dimethoxyphenyl)ethyl)-3-(5-(2-(methylsulfonyl)pyridin-4-yl)-1H-pyrrolo[2,3-b]pyridin-3-yl)acrylamide], the pIC50 is 5.00 to 6.00 at GRK2 and ≥ 7.30 at GRK5.
For `COc1ccc([C@@H](C)NC(=O)/C=C/c2c[nH]c3nccc(-c4ccc(CN5CCOCC5)cc4)c23)cc1OC` [Example 232, (R,E)-N-(1-(3,4-dimethoxyphenyl)ethyl)-3-(4-(4-(morpholinomethyl)phenyl)-1H-pyrrolo[2,3-b]pyridin-3-yl)acrylamide], the pIC50 was 5.00 to 6.00 at GRK2 and 7.00 to 7.30 at GRK5.
With `C[C@@H](NC(=O)/C(C#N)=C/c1c[nH]c2ncc(-c3cccc(N4CCN(C)CC4)c3)cc12)c1ccc(F)cc1` [Example 181, (R,E)-2-cyano-N-(1-(4-fluorophenyl)ethyl)-3-(5-(3-(4-methylpiperazin-1-yl)phenyl)-1H-pyrrolo[2,3-b]pyridin-3-yl)acrylamide], the pIC50 was 6.30 to 7.00 on GRK2 and ≥ 7.30 at GRK5.
In the case of `O=C(/C=C/c1c[nH]c2ncc(Cl)cc12)NCc1cccc(F)c1` [Example 7, (E)-3-(5-chloro-1H-pyrrolo[2,3-b]pyridin-3-yl)-N-(3-fluorobenzyl)acrylamide], the pIC50 at GRK2 was 5.00 to 6.00; on GRK5, 6.30 to 7.00.
